# Assay results from publication PMC6847200 (2019).
# Columns and labels:
# Test in all cases: ITC
# Conditions in all cases: 100 mM KCl, 20 mM MgCl2; 50 mM K-HEPES pH 7.5, 30 °C; apparent
# [1] = tested on: env1 (RNA, riboswitch) GGGUGUAAUCUCCAAAAUAUGGUUGGGGAGCCUCCACCAGUGAACCGUAAAAUCGCUGUCACCACCC
# [2] = tested on: env23 (RNA, riboswitch) GGGUGUAAUUCGGGGGAUUGGCCCCGGAGUAUCCACGACCGGACCAUAAUCCGGUGCAUCCACCC
# [3] = tested on: env30 (RNA, riboswitch) GGACGUAGCCUGGGGGAUUGGCCCCAGGGCAUCCACGAGCUGGCCGCAACUAGCUGAGACCGUCC
# [4] = tested on: env1 C78A (RNA, riboswitch) GGGUGUAAUCUCCAAAAUAUGGUUGGGGAGCCUCCACCAGUGAACCGUAAAAUCGCUGUCAACACCC
# [5] = tested on: xpt U51C + U75C76 (RNA, riboswitch) GGACAUAUAAUCGCGUGGAUAUGGCACGCAAGUUUCCACCGGGCACCGUAAAUGUCCGUCACUAUGUCC
# [6] = tested on: env1 U75A (RNA, riboswitch) GGGUGUAAUCUCCAAAAUAUGGUUGGGGAGCCUCCACCAGUGAACCGUAAAAUCGCUGACACCACCC
# [7] = tested on: env1 Δ(U75,C76) (RNA, riboswitch) GGGUGUAAUCUCCAAAAUAUGGUUGGGGAGCCUCCACCAGUGAACCGUAAAAUCGCUGACCACCC
# [8] = tested on: env1 C48A (RNA, riboswitch) GGGUGUAAUCUCCAAAAUAUGGUUGGGGAGCAUCCACCAGUGAACCGUAAAAUCGCUGUCACCACCC
# [9] = tested on: xpt + U75C76 (RNA, riboswitch) GGACAUAUAAUCGCGUGGAUAUGGCACGCAAGUUUCUACCGGGCACCGUAAAUGUCCGUCACUAUGUCC
# [10] = tested on: env1 C47,48U (RNA, riboswitch) GGGUGUAAUCUCCAAAAUAUGGUUGGGGAGUUUCCACCAGUGAACCGUAAAAUCGCUGUCACCACCC
# [11] = tested on: env6 (RNA, riboswitch) GGACGUAAUCCUCCGAACAGGCGGGGGAGCAUCCACCGCCGGGCCUUAACCCGGUGUAACCGUCC
# [12] = tested on: env1 C51U (RNA, riboswitch) GGGUGUAAUCUCCAAAAUAUGGUUGGGGAGCCUCUACCAGUGAACCGUAAAAUCGCUGUCACCACCC
# [13] = tested on: env1 A77U (RNA, riboswitch) GGGUGUAAUCUCCAAAAUAUGGUUGGGGAGCCUCCACCAGUGAACCGUAAAAUCGCUGUCUCCACCC
# [14] = tested on: env1 G21A,C79U (RNA, riboswitch) GGGUAUAAUCUCCAAAAUAUGGUUGGGGAGCCUCCACCAGUGAACCGUAAAAUCGCUGUCACUACCC
smiles,measurement,setting,value
Nc1nc2c(ncn2CCC(CO)CO)c(=O)[nH]1,KD,[1],2000 ± 100 nM
Nc1nc2c(ncn2COCCO)c(=O)[nH]1,KD,[1],560 ± 10 nM
Nc1nc2c(ncn2[C@@H]2O[C@H](CO)[C@@H](O)[C@H]2O)c(=O)[nH]1,"KD,rG",[2],51 000 ± 4000 nM
same,"KD,rG",[1],89 ± 10 nM
same,"KD,rG",[3],36 000 ± 1000 nM
Nc1nc2c(ncn2[C@H]2C[C@H](O)[C@@H](CO)O2)c(=O)[nH]1,"KD,2′-dG",[2],290 ± 50 nM
same,"KD,dG",[4],41 000 ± 9000 nM
same,"KD,app",[5],1600 ± 100 nM
same,"KD,dG",[6],1600 ± 300 nM
same,"KD,dG",[7],240 ± 50 nM
same,"KD,dG",[8],7.1 ± 1.4 nM
same,"KD,2′-dG",[1],34 ± 1 nM
same,"KD,app",[9],8100 ± 600 nM
same,"KD,dG",[10],110 ± 10 nM
same,"KD,2′-dG",[11],88 ± 3 nM
same,"KD,2′-dG",[3],2400 ± 900 nM
same,"KD,dG",[12],620 ± 180 nM
same,"KD,dG",[13],250 ± 10 nM
same,"KD,dG",[14],570 ± 30 nM
O=c1[nH]cnc2nc[nH]c12,"KD,app",[9],21000 ± 2000 nM
